According to paper PMC4418665, “Cyclization of the Urokinase Receptor-Derived Ser-Arg-Ser-Arg-Tyr Peptide Generates a Potent Inhibitor of Trans-Endothelial Migration of Monocytes” (PLoS ONE, 2015):
Peptide text beside a SMILES is read from it.

Test system: RBL-2H3/ETFR cells
Test: RBL-2H3/ETFR cell migration, xCELLigence RTCA
Format: cell-based, rat
Details: 4 hours, Cell Index, quadruplicate
Description: We have previously documented that SRSRY competes with the bacterial-derived N-formyl-methionyl-leucyl-phenylalanine peptide (fMLF) for binding to FPR type 1 (FPR1) and that both SRSRY and fMLF promote cell migration by triggering FPR1 internalization. […] Quantification of cell-associated fluorescence was assessed by reading cell lysates with a fluorescence plate reader. RBL-2H3 cells lack FPR1, thus they display very low uptake that was not saturable with unlabeled fMLF (Fig 2A). […] To evaluate the effect of [SRSRY] on agonist-dependent FPR1 internalization, binding experiments were performed at 37°C. […] Thus, we assessed whether [SRSRY] elicits effects on fMLF-directed cell migration. RBL-2H3/ETFR cell migration toward 10 nM fMLF was monitored in real-time for 4 hours as Cell Index changes due to the adhesion of migrating cells to microelectrodes using the xCELLigence RTCA technology as previously described. […]
Fig 2 Both linear and cyclic SRSRY peptides bind to FPR1. […] Fluorimetric measurement of cell-associated fluorescence was assed using 485 nm excitation and 535 nm emission filters. Data are expressed as a percentage of the fluorescence associated to RBL-2H3 cells exposed to FITC-fMLF alone (CTL = 100%) and represent a mean ± SD from triplicates. *Statistical significance (t-test) against None with p<0.001. […] Cell migration of RBL-2H3/ETFR cells monitored by the xCELLigence system. […]

Compound: N=C(N)NCCC[C@@H]1NC(=O)[C@H](CO)NC(=O)[C@H](Cc2ccc(O)cc2)NC(=O)[C@H](CCCNC(=N)N)NC(=O)[C@H](CO)NC1=O [[SRSRY], [Ser-Arg-Ser-Arg-Tyr]] (cyclo(RSRYS))
- RBL-2H3/ETFR cell migration toward 10 nM fMLF in presence of peptide (10 nM fMLF mixed with 10 nM peptide): reduced to the basal level
- RBL-2H3/ETFR cell migration toward the peptide alone (10 nM peptide in lower chamber): cell migration did not change significantly
